Reference: patent publication US11548900B2, “Oxazino-quinazoline and oxazino-quinoline type compound, preparation method and uses thereof” (BEIJING SCITECH-MQ PHARMACEUTICALS LIMITED, priority 2018, dated 2023)
pIC50: −log10 of the molar value.

target: HER2 kinase (Homo sapiens (Human), UniProt P04626); assay: Inhibition of HER2 kinase activity (ULight-labeled PolyGT substrate); format: biochemical; conditions: HER2 kinase 10 nM, ATP 10 μM, 2 hours
Procedure: The assay for the inhibition of EGFR and HER2 kinase activity by small molecular compounds was carried out using the method as follows:
1) Dilution of the compounds
In a 96-well plate a, the compounds were diluted with DMSO using a 3-fold gradient dilution to form 11 concentrations, the 12th concentration is pure DMSO (as a positive control); and in a new 96-well plate b the above solutions were diluted 25 times with ultrapure water (DMSO concentration is 4%).
2) Transferring the compounds to 384-well plate
The compound solutions diluted with ultrapure water in the 96-well plate b above was transferred to the corresponding wells of a 384-well plate in duplicate.
3) Addition of 4×kinase solution: 2.5 μl of the above 4× kinase solution was taken using multichannel pipette and added to the corresponding reaction wells of the 384-well plate, mixed well and pre-reacted at room temperature for 5 minutes.
4) Addition of 2×substrate/ATP mixed solution: 5 μl of the above 2×substrate/ATP mixed solution was taken using multichannel pipette and added to the corresponding reaction wells of the 384-well plate.
5) Negative control: negative control wells were set in the 384-well plate, and 2.5 μl 4×substrate, 2.5 μl 4×enzyme solution, 2.5 μl 1×Kinase Assay Buffer and 2.5 μl ultrapure water containing 4% DMSO were added to each well.
6) Mixed by centrifugation and kept at room temperature for 2 hours in the dark.
7) Termination of the enzymatic reaction:
5 μl of the above 4× stop solution was pipetted to the corresponding wells of the 384-well plate, centrifuged and mixed, and reacted at room temperature for 5 minutes.
5 μl of the above 4× detection solution was pipetted into the corresponding wells of the 384-well plate, centrifuged and mixed, and reacted at room temperature for 1 hour.
9) The 384-well plate was placed into a microplate reader and the signal was detected using the corresponding program.
10) IC50 analysis: Well reading value=10000*EU665 value/EU615 value Inhibition rate=(reading value of positive control well−reading value of experimental well)/(reading value of positive control well−reading value of negative control well)*100% Corresponding IC50s can be calculated by entering the drug concentrations and the corresponding inhibition rates into GraphPad Prism 5.
Conditions of experiment for screening HER2 kinase inhibitory molecules:
The final concentration of HER2 kinase in the reaction system is 10 nM, the final concentration of ATP is 10 μM, the final concentration of substrate ULight™-labeled PolyGT is 100 nM, and the enzymatic reaction time is 2 hours.
The maximum final concentration of the compound in the reaction system is 2.5 μM, 11 concentrations were made with a 3-fold gradient dilution, and the minimal final concentration is 0.042 nM. The final concentration of DMSO is 1%.

HER2 kinase, sequence (P04626 23-1255): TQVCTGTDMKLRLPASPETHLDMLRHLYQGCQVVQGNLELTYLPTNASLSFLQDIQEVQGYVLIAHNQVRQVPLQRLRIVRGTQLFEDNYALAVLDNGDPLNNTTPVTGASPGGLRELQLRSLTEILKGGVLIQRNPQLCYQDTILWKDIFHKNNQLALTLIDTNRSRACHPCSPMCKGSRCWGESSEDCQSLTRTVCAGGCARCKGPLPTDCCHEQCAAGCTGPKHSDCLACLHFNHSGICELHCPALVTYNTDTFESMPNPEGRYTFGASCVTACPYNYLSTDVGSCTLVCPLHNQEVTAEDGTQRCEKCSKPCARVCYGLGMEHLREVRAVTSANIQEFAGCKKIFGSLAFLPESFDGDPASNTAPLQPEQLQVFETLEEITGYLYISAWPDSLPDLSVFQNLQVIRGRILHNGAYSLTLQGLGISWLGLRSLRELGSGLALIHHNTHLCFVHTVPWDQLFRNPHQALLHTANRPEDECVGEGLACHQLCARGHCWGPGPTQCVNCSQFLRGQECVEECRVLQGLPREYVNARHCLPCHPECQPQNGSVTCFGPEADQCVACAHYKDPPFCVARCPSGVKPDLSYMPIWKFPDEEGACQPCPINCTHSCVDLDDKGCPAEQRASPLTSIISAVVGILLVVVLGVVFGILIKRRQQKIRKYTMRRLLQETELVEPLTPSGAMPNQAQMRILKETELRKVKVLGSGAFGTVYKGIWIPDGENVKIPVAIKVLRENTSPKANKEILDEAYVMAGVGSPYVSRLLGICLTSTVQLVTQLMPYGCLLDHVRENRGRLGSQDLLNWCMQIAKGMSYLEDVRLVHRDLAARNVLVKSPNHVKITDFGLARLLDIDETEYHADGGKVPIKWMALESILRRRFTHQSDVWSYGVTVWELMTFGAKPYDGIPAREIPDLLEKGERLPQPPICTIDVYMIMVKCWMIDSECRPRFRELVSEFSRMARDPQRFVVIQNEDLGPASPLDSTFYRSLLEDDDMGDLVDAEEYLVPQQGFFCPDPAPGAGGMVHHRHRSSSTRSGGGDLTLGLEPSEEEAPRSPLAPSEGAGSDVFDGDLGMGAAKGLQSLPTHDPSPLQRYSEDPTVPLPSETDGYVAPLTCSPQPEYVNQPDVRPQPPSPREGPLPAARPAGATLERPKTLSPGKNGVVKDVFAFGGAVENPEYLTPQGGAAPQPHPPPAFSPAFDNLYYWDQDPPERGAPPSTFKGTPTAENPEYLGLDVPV

Compound	pIC50
C=CC(=O)N1CCOc2c1ccc1ncnc(Nc3ccc(Oc4cccc(C(F)(F)F)c4)cc3)c21 [Example 1, 1-(10-((4-(3-(trifluoromethyl)phenoxy)phenyl)amino)-2,3-dihydro-4H-[1,4]oxazino[2,3-f]quinazolin-4-yl)prop-2-en-1-one]	≥ 7.30
C=CC(=O)N1CCOc2c1ccc1ncnc(Nc3ccc(Oc4cccc(C)c4)cc3)c21 [Example 5, 1-(10-((4-(m-tolyloxy)phenyl)amino)-2,3-dihydro-4H-[1,4]oxazino[2,3-f]quinazolin-4-yl)prop-2-en-1-one]	≥ 7.30
C=CC(=O)N1CCOc2c1ccc1ncnc(Nc3ccc(Oc4cccc(Cl)c4)cc3)c21 [Example 6, 1-(10-((4-(3-chlorophenoxy)phenyl)amino)-2,3-dihydro-4H-[1,4]oxazino[2,3-f]quinazolin-4-yl)prop-2-en-1-one]	≥ 7.30
C=CC(=O)N1CCOc2c1ccc1ncnc(Nc3ccc(Oc4cccc(F)c4)cc3)c21 [Example 7, 1-(10-((4-(3-fluorophenoxy)phenyl)amino)-2,3-dihydro-4H-[1,4]oxazino[2,3-f]quinazolin-4-yl)prop-2-en-1-one]	≥ 7.30
C=CC(=O)N1CCOc2c1ccc1ncnc(Nc3ccc(Oc4ccccc4F)cc3)c21 [Example 8, 1-(10-((4-(2-fluorophenoxy)phenyl)amino)-2,3-dihydro-4H-[1,4]oxazino[2,3-f]quinazolin-4-yl)prop-2-en-1-one]	≥ 7.30
C=CC(=O)N1CCOc2c1ccc1ncnc(Nc3ccc(Oc4ccc(F)cc4)cc3)c21 [Example 9, 1-(10-((4-(4-fluorophenoxy)phenyl)amino)-2,3-dihydro-4H-[1,4]oxazino[2,3-f]quinazolin-4-yl)prop-2-en-1-one]	≥ 7.30
C=CC(=O)N1CCOc2c1ccc1ncnc(Nc3ccc(Oc4ccc(Cl)cc4)cc3)c21 [Example 10, 1-(10-((4-(4-chlorophenoxy)phenyl)amino)-2,3-dihydro-4H-[1,4]oxazino[2,3-f]quinazolin-4-yl)prop-2-en-1-one]	≥ 7.30
C=CC(=O)N1CCOc2c1ccc1ncnc(Nc3ccc(Oc4ccccc4OC)cc3)c21 [Example 11, 1-(10-((4-(2-methoxyphenoxy)phenyl)amino)-2,3-dihydro-4H-[1,4]oxazino[2,3-f]quinazolin-4-yl)prop-2-en-1-one]	≥ 7.30
C=CC(=O)N1CCOc2c1ccc1ncnc(Nc3ccc(Oc4ccccn4)cc3)c21 [Example 12, 1-(10-((4-(pyridin-2-yloxy)phenyl)amino)-2,3-dihydro-4H-[1,4]oxazino[2,3-f]quinazolin-4-yl)prop-2-en-1-one]	≥ 7.30
C=CC(=O)N1CCOc2c1ccc1ncnc(Nc3ccc(Oc4cccnc4)cc3)c21 [Example 13, 1-(10-((4-(pyridin-3-yloxy)phenyl)amino)-2,3-dihydro-4H-[1,4]oxazino[2,3-f]quinazolin-4-yl)prop-2-en-1-one]	≥ 7.30
C=CC(=O)N1CCOc2c1ccc1ncnc(Nc3ccc(Oc4cccc(OC)c4)cc3)c21 [Example 14, 1-(10-((4-(3-methoxyphenoxy)phenyl)amino)-2,3-dihydro-4H-[1,4]oxazino[2,3-f]quinazolin-4-yl)prop-2-en-1-one]	≥ 7.30
C=CC(=O)N1CCOc2c1ccc1ncnc(Nc3ccc(Oc4nccs4)cc3)c21 [Example 15, 1-(10-((4-(thiazol-2-yloxy)phenyl)amino)-2,3-dihydro-4H-[1,4]oxazino[2,3-f]quinazolin-4-yl)prop-2-en-1-one]	≥ 7.30
C=CC(=O)N1CCOc2c1ccc1ncnc(Nc3ccc(Oc4ccccc4)c(F)c3)c21 [Example 16, 1-(10-((3-fluoro-4-phenoxyphenyl)amino)-2,3-dihydro-4H-[1,4]oxazino[2,3-f]quinazolin-4-yl)prop-2-en-1-one]	≥ 7.30
C=CC(=O)N1CCOc2c1ccc1ncnc(Nc3ccc(Oc4ccccc4)c(Cl)c3)c21 [Example 17, 1-(10-((3-chloro-4-phenoxyphenyl)amino)-2,3-dihydro-4H-[1,4]oxazino[2,3-f]quinazolin-4-yl)prop-2-en-1-one]	≥ 7.30
C=CC(=O)N1CCOc2c1ccc1ncnc(Nc3ccc(OCc4ccc(F)cc4)cc3)c21 [Example 18, 1-(10-((4-((4-fluorobenzyl)oxy)phenyl)amino)-2,3-dihydro-4H-[1,4]oxazino[2,3-f]quinazolin-4-yl)prop-2-en-1-one]	≥ 7.30
C=CC(=O)N1CCOc2c1ccc1ncnc(Nc3ccc(OCc4cccc(F)c4)cc3)c21 [Example 19, 1-(10-((4-((3-fluorobenzyl)oxy)phenyl)amino)-2,3-dihydro-4H-[1,4]oxazino[2,3-f]quinazolin-4-yl)prop-2-en-1-one]	≥ 7.30
C=CC(=O)N1CCOc2c1ccc1ncnc(Nc3ccc(OCc4cccc(C(F)(F)F)c4)cc3)c21 [Example 20, 1-(10-((4-((3-trifluoromethylbenzyl)oxy)phenyl)amino)-2,3-dihydro-4H-[1,4]oxazino[2,3-f]quinazolin-4-yl)prop-2-en-1-one]	≥ 7.30
C=CC(=O)N1CCOc2c1ccc1ncnc(Nc3ccc(OCc4ccccn4)cc3)c21 [Example 21, 1-(10-((4-(pyridin-2-ylmethoxy)phenyl)amino)-2,3-dihydro-4H-[1,4]oxazino[2,3-f]quinazolin-4-yl)prop-2-en-1-one]	≥ 7.30
C=CC(=O)N1CCOc2c1ccc1ncnc(Nc3ccc(OCc4cccs4)cc3)c21 [Example 22, 1-(10-((4-(thiophen-2-ylmethoxy)phenyl)amino)-2,3-dihydro-4H-[1,4]oxazino[2,3-f]quinazolin-4-yl)prop-2-en-1-one]	≥ 7.30
C=CC(=O)N1CCOc2c1ccc1ncnc(Nc3ccc(OCc4nccs4)cc3)c21 [Example 23, 1-(10-((4-(thiazol-2-ylmethoxy)phenyl)amino)-2,3-dihydro-4H-[1,4]oxazino[2,3-f]quinazolin-4-yl)prop-2-en-1-one]	≥ 7.30
C=CC(=O)N1CCOc2c1ccc1ncnc(Nc3ccc(SCc4ccccc4)cc3)c21 [Example 24, 1-(10-((4-(benzylthio)phenyl)amino)-2,3-dihydro-4H-[1,4]oxazino[2,3-f]quinazolin-4-yl)prop-2-en-1-one]	≥ 7.30
C=CC(=O)N1CCOc2c1ccc1ncnc(Nc3ccc(OCc4cccc(F)c4)c(C(F)(F)F)c3)c21 [Example 25, 1-(10-((4-((3-fluorobenzyl)oxy)-3-(trifluoromethyl)phenyl)amino)-2,3-dihydro-4H-[1,4]oxazino[2,3-f]quinazolin-4-yl)prop-2-en-1-one]	≥ 7.30
C=CC(=O)N1CCOc2c1ccc1ncnc(Nc3ccc(OCc4cccc(F)c4)c(OC)c3)c21 [Example 26, 1-(10-((4-((3-fluorobenzyl)oxy)-3-(methoxy)phenyl)amino)-2,3-dihydro-4H-[1,4]oxazino[2,3-f]quinazolin-4-yl)prop-2-en-1-one]	≥ 7.30
C=CC(=O)N1CCOc2c1ccc1ncnc(Nc3ccc(OCc4cccc(F)c4)c(F)c3)c21 [Example 27, 1-(10-((4-((3-fluorobenzyl)oxy)-3-fluorophenyl)amino)-2,3-dihydro-4H-[1,4]oxazino[2,3-f]quinazolin-4-yl)prop-2-en-1-one]	≥ 7.30
C=CC(=O)N1CCOc2c1ccc1ncnc(Nc3ccc(Sc4ccc(F)cc4)cc3)c21 [Example 28, 1-(10-((4-((4-fluorophenyl)thio)phenyl)amino)-2,3-dihydro-4H-[1,4]oxazino[2,3-f]quinazolin-4-yl)prop-2-en-1-one]	≥ 7.30
